Experiment [1] deals with T1, GHSR (GHS-R1a) (Homo sapiens, UniProt Q92847).
T1 construct: expressed in transfected cells; host or cells: HEK 293 cells transfected with GHS-R1a (membrane suspension)
Briefly: biochemical. It is filed as binding. To be noted: for IC50: lower limit from test at 100 µM, read-out: IC50 against GHSR. As to the method: Peptide binding affinity for the ghrelin receptor was determined using a competitive radioligand-displacement binding assay,[22] with details provided in the Supporting Information. […]
GHSR receptor binding assays. Peptide binding affinity for the ghrelin receptor was determined using a competitive radioligand-displacement binding assay.1 Assays were performed using GHS-R1a transfected HEK 293 cells as the receptor source and human His[125I]-ghrelin(1−28) (PerkinElmer Inc. NEX388010UC ) as the radioligand. Human ghrelin(1−28) was used as a reference to ensure the validity of the results. A suspension of membrane from HEK 293/GHS-R1a cells (100,000 cells per assay tube) were incubated with ghrelin(1−8) peptide analogues (at […]
ghrelin (15 pM per assay tube) in binding buffer (25 mM HEPES, 5 mM magnesium chloride, 1 mM calcium chloride, 2.5 mM EDTA, and 0.4% BSA, pH 7.4). The resulting suspension was incubated for 20 min under shaking (550 rpm) at 37 °C. Unbound [ 125I]-ghrelin was removed and the amount of [ 125I]-ghrelin bound to the membranes was measured by γ counter. IC 50 values were determined by nonlinear regression analysis to fit a four-parameter dose−response curve using Prism 6 (version 6.0c). All binding assays were performed in triplicate. […]

Experiment [2] has as its target T2, hGOAT (Homo sapiens, UniProt Q96T53).
T2 construct: 3xHA (C); FLAG (C); His6 (C); made in house; host or cells: Sf9 insect cells (baculovirus), crude membrane fraction
T2 sequence (Q96T53 1-435): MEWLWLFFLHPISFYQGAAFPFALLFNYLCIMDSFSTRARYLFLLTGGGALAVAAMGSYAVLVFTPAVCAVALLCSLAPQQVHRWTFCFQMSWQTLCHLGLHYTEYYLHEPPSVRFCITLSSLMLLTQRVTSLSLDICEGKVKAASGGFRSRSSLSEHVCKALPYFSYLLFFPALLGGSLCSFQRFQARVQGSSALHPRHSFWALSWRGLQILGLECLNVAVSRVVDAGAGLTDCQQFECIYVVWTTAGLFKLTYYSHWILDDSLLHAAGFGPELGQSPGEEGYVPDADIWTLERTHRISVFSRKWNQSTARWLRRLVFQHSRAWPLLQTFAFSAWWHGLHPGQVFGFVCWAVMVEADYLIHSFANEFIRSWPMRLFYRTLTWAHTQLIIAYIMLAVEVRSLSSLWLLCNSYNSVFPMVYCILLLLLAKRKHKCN
Briefly: hGOAT inhibition assay (octanoylation of GSSFLCAcDan by Sf9 membrane fraction expressing hGOAT, HPLC fluorescence). To be noted: read-out: IC50 against hGOAT. Type of experiment: biochemical. On the procedure: Assays were performed using previously reported protocols,[57],[58] as described in the Supporting Information. […]
hGOAT inhibition assays. Assays were performed using previously reported protocols.2-3 For each assay, membrane fraction from Sf9 cells expressing hGOAT was thawed on ice and homogenized by passage through an 18-gauge needle 10 times. Assays were performed with 50 µg of membrane protein, as determined by Bradford assay. Membrane fraction was pre-incubated with 1 µM methyl […]
arachidonyl fluorophosphonate (MAFP) and unlabeled peptide inhibitor or vehicle as indicated in 50 mM HEPES pH 7.0 for 30 minutes at room temperature prior to reaction initiation.4 All reactions were initiated by the addition of 1.5 µM GSSFLCAcDan and 300 µM octanoyl CoA.
Reactions were incubated for 30 minutes at room temperature under foil. All assays were stopped with the addition of 50 µL of 20% acetic acid in isopropanol, and solutions were clarified by protein precipitation with 16.7 µL of 20% trichloroacetic acid, followed by centrifugation (1,000 x g, 2 minutes). The supernatant was then analyzed using reverse-phase HPLC with fluorescence detection as previously described.2-3 Peak integrations for both substrate and product peaks were calculated using Chemstation for LC (Agilent Technologies). Data reported are the average of three independent determinations, with error reported as standard deviation.
For determination of IC50 values, the percent activity at each inhibitor concentration was calculated from HPLC integration data using equations 1 and 2: To determine an IC50 value for a given inhibitor, the plot of % activity versus [inhibitor] was fit to equation 3, with % activity0 denoting hGOAT activity in the presence of the vehicle alone. All reported IC50 values represent the average of a minimum of three independent trials.
(1) % activity = % peptide acylation in presence of inhibitor
% peptide acylation in absence of inhibitor
(2) % peptide octanoylation = Fluorescence of acylated peptide
Total peptide fluorescence (acylated and non-acylated)
(3) % activity = % activity * (1- [inhibitor] )

Experiment [3] concerns the target T1, GHSR (GHS-R1a). On the set-up: method as in Charron et al.[22]. To be noted: ref Charron et al.[22]; read-out: IC50 against GHSR; cited from earlier work.
Target sequence in this assay (Q92847 whole entry, species assumed): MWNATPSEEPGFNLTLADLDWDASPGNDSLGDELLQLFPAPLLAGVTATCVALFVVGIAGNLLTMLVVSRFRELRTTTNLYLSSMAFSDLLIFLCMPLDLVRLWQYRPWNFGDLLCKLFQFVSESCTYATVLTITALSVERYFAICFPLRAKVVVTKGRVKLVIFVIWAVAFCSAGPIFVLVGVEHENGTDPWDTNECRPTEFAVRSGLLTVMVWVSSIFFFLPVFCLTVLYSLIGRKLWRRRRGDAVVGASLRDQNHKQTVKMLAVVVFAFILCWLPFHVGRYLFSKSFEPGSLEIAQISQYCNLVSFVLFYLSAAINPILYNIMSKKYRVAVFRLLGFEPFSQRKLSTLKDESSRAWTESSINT
Experiment [4] concerns the target human ghrelin O-acyltransferase (hGOAT) of the hGOAT inhibition assays (human) (UniProt Q96T53).

Where two headings read alike, the source gives them in different places. Square brackets hold non-standard residues; d marks the D form. Peptide text beside a SMILES is read from it. * marks the point of attachment. 1Nal = N[C@@H](Cc1cccc2ccccc12)C(=O)O; X2 = O=C(c1ccc2cc(F)ccc2c1)*; Octanoyl = CCCCCCCC(=O)*; Dap = NC[C@H](N)C(=O)O; Inp = O=C(O)C1CCNCC1 Where only a bound is given, the exact number is not on record here.

The term IC50 denotes the concentration that gives 50% inhibition. Consider `CC(C)C[C@H](NC(=O)[C@H](Cc1ccccc1)NC(=O)[C@H](CNC(=O)c1ccc2cc(F)ccc2c1)NC(=O)[C@H](CO)NC(=O)CN)C(=O)N[C@@H](CO)C(=O)N1CCC[C@H]1C(=O)N[C@@H](Cc1ccc(O)cc1)C(N)=O` [ligand 3, H-GS-(6FN-Dap)-FLSPY-NH2] (H-GS[Dap](X2)FLSPY-NH2), for which, in experiment [1] (from IC50 values of Table 1), the “selectivity for GHSR binding over GOAT” value is greater than 100 fold. In addition, the IC50 in experiment [2] is greater than 100000 nM; in experiment [3], 9.9 nM.
As for `CC(C)C[C@H](NC(=O)[C@H](Cc1ccccc1)NC(=O)[C@H](CN)NC(=O)[C@H](CO)NC(=O)C1CCNCC1)C(=O)N[C@@H](CO)C(=O)N1CCC[C@H]1C(=O)N[C@@H](Cc1ccc(O)cc1)C(N)=O` [ligand 5, H-Inp-S-Dap-FLSPY-NH2] (HELM PEPTIDE1{[O=C(C1CCNCC1)[*:2]].S.[NC[C@H](N[*:1])C(=O)[*:2]].F.L.S.P.Y.[am]}$$$$V2.0), the results for the half-maximal inhibitory concentration (IC50) in experiment [1] and in experiment [2] were no less than 100000 nM and greater than 100000 nM, respectively.
As for `CC(C)C[C@H](NC(=O)[C@H](Cc1ccccc1)NC(=O)[C@H](CN)NC(=O)[C@H](CO)NC(=O)CN)C(=O)N[C@@H](CO)C(=O)N1CCC[C@H]1C(=O)N[C@@H](Cc1ccc(O)cc1)C(N)=O` [ligand 1, H-GS-Dap-FLSPY-NH2] (HELM PEPTIDE1{G.S.[NC[C@H](N[*:1])C(=O)[*:2]].F.L.S.P.Y.[am]}$$$$V2.0), in experiment [1], the 50% inhibitory concentration (IC50) was no less than 100000 nM.
With “ligand 3, H-GS-(6FN-Dap)-FLSPY-NH2 (peptide)”, in experiment [4], the inhibition of hGOAT activity (IC50 against hGOAT) was greater than 100000 nM.
Consider `CC(C)C[C@H](NC(=O)[C@H](Cc1cccc2ccccc12)NC(=O)[C@H](CNC(=O)c1ccc2cc(F)ccc2c1)NC(=O)[C@H](CO)NC(=O)C1CCNCC1)C(=O)N[C@@H](CO)C(=O)N1CCC[C@H]1C(=O)N[C@H](C(N)=O)[C@@H](C)O` [ligand 14] (H-[Inp]S[Dap](X2)[1Nal]LSPT-NH2), for which the IC50 in experiment [2] was greater than 100000 nM.
With `CC(C)C[C@H](NC(=O)[C@H](Cc1ccccc1)NC(=O)[C@H](CN)NC(=O)[C@H](CO)NC(=O)C(C)(C)N)C(=O)N[C@@H](CO)C(=O)N1CCC[C@H]1C(=O)N[C@@H](Cc1ccc(O)cc1)C(N)=O` [ligand 4, H-Aib-S-Dap-FLSPY-NH2] (HELM PEPTIDE1{[Aib].S.[NC[C@H](N[*:1])C(=O)[*:2]].F.L.S.P.Y.[am]}$$$$V2.0), the IC50 in experiment [1] was no less than 100000 nM; in experiment [2], greater than 100000 nM.
With `CC(C)C[C@H](NC(=O)[C@H](Cc1ccc2ccccc2c1)NC(=O)[C@H](CN)NC(=O)[C@H](CO)NC(=O)CN)C(=O)N[C@@H](CO)C(=O)N1CCC[C@H]1C(=O)N[C@H](C(N)=O)[C@@H](C)O` [ligand 13, H-GS-Dap-Nal-2-LSPT-NH2] (HELM PEPTIDE1{G.S.[NC[C@H](N[*:1])C(=O)[*:2]].[O=C([C@H](Cc1ccc2ccccc2c1)N[*:1])[*:2]].L.S.P.T.[am]}$$$$V2.0), the half-inhibitory concentration (IC50) in experiment [1] is no less than 100000 nM.
As to H-Aib-S-(6FN-Dap)-FLSPY-NH2 [ligand 6], the IC50 in experiment [3] is 9.2 nM.
Take `CCCCCCCC(=O)NC[C@H](NC(=O)[C@H](CO)NC(=O)CN)C(=O)N[C@@H](Cc1ccccc1)C(=O)N[C@@H](CC(C)C)C(=O)N[C@@H](CO)C(=O)N1CCC[C@H]1C(=O)N[C@H](C(N)=O)[C@@H](C)O` [ligand 11, H-GS-(C8-Dap)-FLSPT-NH2] (H-GS[Dap](Octanoyl)FLSPT-NH2): the IC50 is 27 ± 8 nM in experiment [2] (average of three independent trials ± one standard deviation) and 3.3 nM in experiment [3].
As to “ligand 9, H-GS-(C8-Dap)-FLSPE-NH2 (peptide)”, the inhibition of hGOAT activity (IC50 against hGOAT) in experiment [4] worked out at 580 nM.
